# Test results from US11130769B2 (Prelude Therapeutics Incorporated, priority 2018, dated 2021).
# Where two headings read alike, the source gives them in different places.
# What was measured:
# MCL-1 = MCL-1 (Homo sapiens (Human), UniProt Q07820); test: Cell free Mcl-1:Bim affinity assay (fluorescence polarization competition); assay type: binding; settings: 15 nM MCL-1, 5 nM FITC-Bim, 1 hour at room temperature, read-out: BIM_Ki
# Summary of the method: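 Compounds competed with FITC-labelled Bim peptide (5 nM) for MCL-1 (15 nM) in HEPES/NaCl buffer with 1% DMSO, 1 h at room temperature. Fluorescence polarization (535 nm emission) gave % inhibition versus DMSO and positive controls; IC50 from 10-point curves, converted to Ki by the Nikolovska-Coleska equation.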
# H929 cells = test: Cell viability assay (H929 10 FBS); assay type: cell-based; settings: Homo sapiens, NCI-H929, 24 hours, read-out: H929_10FBS IC50
# Summary of the method: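 H929 cells, 4000/well, in RPMI 1640 with 10% FBS, sodium pyruvate, HEPES and glucose were exposed to compound 24 h at 37 °C. Viability read as luminescence after 30-60 min at RT with CellTiter-Glo or ATPlite 1 Step.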
# Chain of MCL-1 (Q07820 whole entry): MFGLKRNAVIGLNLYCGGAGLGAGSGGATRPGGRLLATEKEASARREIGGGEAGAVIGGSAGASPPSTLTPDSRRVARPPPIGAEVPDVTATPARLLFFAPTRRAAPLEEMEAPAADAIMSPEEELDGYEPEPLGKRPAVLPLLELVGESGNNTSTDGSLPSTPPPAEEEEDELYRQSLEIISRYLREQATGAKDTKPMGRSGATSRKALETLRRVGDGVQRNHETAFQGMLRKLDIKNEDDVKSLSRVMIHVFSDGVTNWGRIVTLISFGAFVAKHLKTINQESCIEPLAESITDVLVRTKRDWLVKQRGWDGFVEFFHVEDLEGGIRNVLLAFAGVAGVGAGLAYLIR
SMILES,Ki (MCL-1; class symbols) [nM],IC50 (H929 cells) [nM],Ki (MCL-1; numeric values) [nM]
"CCN1C/C=C/[C@H](OC(=O)N2CCC(OC)CC2)[C@@H]2CC[C@H]2CN2C[C@@]3(CCCc4cc(Cl)ccc43)COc3ccc(cc32)S(=O)(=O)NC(=O)C1(C)C [Example 222, [(3R,6R,7S,8E,22S)-6′-Chloro-11-ethyl-12,12-dimethyl-13,15,15-trioxo-spiro[20-oxa-15-thia-1,11,14-triazatetracyclo[14.7.2.03,6.019,24]pentacosa-8,16,18,24-tetraene-22,1′-tetralin]-7-yl] 4-methoxypiperidine-1-carboxylate]",< 1,< 500,
"CO[C@@H]1/C=C/CNCC(C)(C)C(=O)NS(=O)(=O)c2ccc3c(c2)N(C[C@@H]2CC[C@H]21)C[C@@]1(CCCc2cc(Cl)ccc21)CO3 [Example 68, (3R,6R,7R,8E,23S)-6′-Chloro-7-methoxy-13,13-dimethyl-16,16-dioxo-spiro[21-oxa-16-thia-1,11,15-triazatetracyclo[15.7.2.03,6.020,25]hexacosa[8,17(26),18,20(25)]tetraene-23,1′-tetralin]-14-one]",1 to 100,> 1000,
"O=C(NS(=O)(=O)c1ccc2c(c1)N(CC1CCC1)C[C@@]1(CCCc3cc(Cl)ccc31)CO2)C1CCCC1 [Example 13, N-[(3S)-6′-Chloro-5-(cyclobutylmethyl)spiro[2,4-dihydro-1,5-benzoxazepine-3,1′-tetralin]-7-yl]sulfonylcyclopentanecarboxamide]",,> 1000,22
"CN(C(=O)O[C@H]1/C=C/CN(C)C2(CCC2)C(=O)NS(=O)(=O)c2ccc3c(c2)N(C[C@@H]2CC[C@H]21)C[C@@]1(CCCc2cc(Cl)ccc21)CO3)C1CCOCC1 [Example 239, [(3R,6R,7S,8E,22S)-6′-Chloro-11-methyl-12,12-(1,3-propylene)-13,15,15-trioxo-spiro[20-oxa-15-thia-1,11,14-triazatetracyclo[14.7.2.03,6.019,24]pentacosa-8,16,18,24-tetraene-22,1′-tetralin]-7-yl] N-methyl-N-tetrahydropyran-4-yl-carbamate]",< 1,< 500,
"CC1(C)OC/C=C/[C@H](OCC(=O)N2CCCC2)[C@@H]2CC[C@H]2CN2C[C@@]3(CCCc4cc(Cl)ccc43)COc3ccc(cc32)S(=O)(=O)NC1=O [Example 283, (3R,6R,7S,8E,22S)-6′-Chloro-12,12-dimethyl-15,15-dioxo-7-(2-oxo-2-pyrrolidin-1-yl-ethoxy)spiro[11,20-dioxa-15-thia-1,14-diazatetracyclo[14.7.2.03,6.019,24]pentacosa-8,16,18,24-tetraene-22,1′-tetralin]-13-one]",< 1,< 500,
"CON(C)C(=O)O[C@H]1/C=C/COC(C)(C)C(=O)NS(=O)(=O)c2ccc3c(c2)N(C[C@@H]2CC[C@H]21)C[C@@]1(CCCc2cc(Cl)ccc21)CO3 [Example 63, [(3R,6R,7S,8E,22S)-6′-Chloro-12,12-dimethyl-13,15,15-trioxo-spiro[11,20-dioxa-15-thia-1,14-diazatetracyclo[14.7.2.03,6.019,24]pentacosa-8,16,18,24-tetraene-22,1′-tetralin]-7-yl] N-methoxy-N-methyl-carbamate]",< 1,< 500,
"CO[C@H]1/C=C/CCCCC(=O)NS(=O)(=O)c2ccc3c(c2)N(C[C@@H]2CC[C@H]21)C[C@@]1(CCCc2cc(Cl)ccc21)CO3 [Example 83, (3R,6R,7S,8E,23S)-6′-Chloro-7-methoxy-16,16-dioxo-spiro[21-oxa-16-thia-1,15-diazatetracyclo[15.7.2.03,6.020,25]hexacosa-8,17,19,25-tetraene-23,1′-tetralin]-14-one]",1 to 100,> 1000,
"CC1(C)OC/C=C/[C@H](OCCN2C[C@@H](F)[C@@H](F)C2)[C@@H]2CC[C@H]2CN2C[C@@]3(CCCc4cc(Cl)ccc43)COc3ccc(cc32)S(=O)(=O)NC1=O [Example 269, (3R,6R,7S,8E,22S)-6′-Chloro-7-[2-[(3R,4S)-3,4-difluoropyrrolidin-1-yl]ethoxy]-12,12-dimethyl-15,15-dioxo-spiro[11,20-dioxa-15-thia-1,14-diazatetracyclo[14.7.2.03,6.019,24]pentacosa-8,16,18,24-tetraene-22,1′-tetralin]-13-one]",< 1,< 500,
"O=C1NS(=O)(=O)c2ccc3c(c2)N(C[C@@H]2CC[C@H]2[C@@H](O)/C=C/COC12CC2)C[C@@]1(CCCc2cc(Cl)ccc21)CO3 [Example 40, (3R,6R,7S,8E,22S)-6′-Chloro-7-hydroxy-12,12-ethylene-15,15-dioxo-spiro[11,20-dioxa-15-thia-1,14-diazatetracyclo[14.7.2.03,6.019,24]pentacosa[8,16(25),17,19(24)]tetraene-22,1′-tetralin]-13-one]",< 1,< 500,
"CN(C)C(=O)O[C@H]1/C=C/COC2(CCC2)C(=O)NS(=O)(=O)c2ccc3c(c2)N(C[C@@H]2CC[C@H]21)C[C@@]1(CCCc2cc(Cl)ccc21)CO3 [Example 231, [(3R,6R,7S,8E,22S)-7′-Chloro-12,12-(1,3-propylene)-13,15,15-trioxo-spiro[11,20-dioxa-15λ6-thia-1,14-diazatetracyclo[14.7.2.03,6.019,24]pentacosa-8,16,18,24-tetraene-22,4′-chromane]-7-yl] N,N-dimethyl-1-carboxylate]",< 1,< 500,
"CC1(C)OC/C=C/[C@H](OC(=O)N2CC3CCC(C2)O3)[C@@H]2CC[C@H]2CN2C[C@@]3(CCCc4cc(Cl)ccc43)COc3ccc(cc32)S(=O)(=O)NC1=O [Example 170, [(3R,6R,7S,8E,22S)-6′-Chloro-12,12-dimethyl-13,15,15-trioxo-spiro[11,20-dioxa-15-thia-1,14-diazatetracyclo[14.7.2.03,6.019,24]pentacosa-8,16,18,24-tetraene-22,1′-tetralin]-7-yl] 8-oxa-3-azabicyclo[3.2.1]octane-3-carboxylate]",< 1,< 1000,
"CO[C@@H]1/C=C/CNC2(CCC2)C(=O)NS(=O)(=O)c2ccc3c(c2)N(C[C@@H]2CC[C@H]21)C[C@@]1(CCCc2cc(Cl)ccc21)CO3 [Example 116, (3R,6R,7R,8E,22S)-6′-Chloro-7-methoxy-12,12-(1,3-propylene)-15,15-dioxo-spiro[[20]oxa-15-thia-1,11,14-triazatetracyclo[14.7.2.03,6.019,24]pentacosa[8,16(25),17,19(24)]tetraene-22,1′-tetralin]-13-one]",1 to 100,< 1000,
"CO[C@@H]1/C=C\CN(C)[C@H](C)C(=O)NS(=O)(=O)c2ccc3c(c2)N(C[C@@H]2CC[C@H]21)C[C@@]1(CCCc2cc(Cl)ccc21)CO3 [Example 124, (3R,6R,7R,8Z,12R,22S)-6′-Chloro-7-methoxy-11,12-dimethyl-15,15-dioxo-spiro[20-oxa-15-thia-1,11,14-triazatetracyclo[14.7.2.03,6.019,24]pentacosa-8,16(25),17,19(24)-tetraene-22,1′-tetralin]-13-one]",1 to 100,< 1000,
"CO[C@@H]1/C=C/CN[C@@H](C)C(=O)NS(=O)(=O)c2ccc3c(c2)N(C[C@@H]2CC[C@H]21)C[C@@]1(CCCc2cc(Cl)ccc21)CO3 [Example 117, (3R,6R,7R,8E,12S,22S)-6′-Chloro-7-methoxy-12-methyl-15,15-dioxo-spiro[20-oxa-15-thia-1,11,14-triazatetracyclo[14.7.2.03,6.019,24]pentacosa-8,16(25),17,19(24)-tetraene-22,1′-tetralin]-13-one]",1 to 100,> 1000,
"CN(C)C(=O)O[C@@]1(C)/C=C/COC(C)(C)C(=O)NS(=O)(=O)c2ccc3c(c2)N(C[C@@H]2CC[C@H]21)C[C@@]1(CCCc2cc(Cl)ccc21)CO3 [Example 293, [(3R,6R,7S,8E,22S)-6′-chloro-7,12,12-trimethyl-13,15,15-trioxo-spiro[11,20-dioxa-15-thia-1,14-diazatetracyclo[14.7.2.03,6.019,24]pentacosa-8,16,18,24-tetraene-22,1′-tetralin]-7-yl] N,N-dimethylcarbamate]",< 1,< 500,
"CC(C)NC(=O)O[C@H]1/C=C/CN(C)C(C)(C)C(=O)NS(=O)(=O)c2ccc3c(c2)N(C[C@@H]2CC[C@H]21)C[C@@]1(CCCc2cc(Cl)ccc21)CO3 [Example 207, [(3R,6R,7S,8E,22S)-6′-Chloro-11,12,12-trimethyl-13,15,15-trioxo-spiro[20-oxa-15-thia-1,11,14-triazatetracyclo[14.7.2.03,6.019,24]pentacosa-8,16,18,24-tetraene-22,1′-tetralin]-7-yl] N-isopropylcarbamate]",< 1,< 500,
"CC1(C)OC/C=C/[C@H](OC(=O)N2CCC2)[C@@H]2CC[C@H]2CN2C[C@@]3(CCCc4cc(Cl)ccc43)COc3ccc(cc32)S(=O)(=O)NC1=O [Example 174, [(3R,6R,7S,8E,22S)-6′-Chloro-12,12-dimethyl-13,15,15-trioxo-spiro[11,20-dioxa-15-thia-1,14-diazatetracyclo[14.7.2.03,6.019,24]pentacosa-8,16,18,24-tetraene-22,1′-tetralin]-7-yl] azetidine-1-carboxylate]",< 1,< 500,
"CCOC1CN(C(=O)O[C@H]2/C=C/COC3(CCC3)C(=O)NS(=O)(=O)c3ccc4c(c3)N(C[C@@H]3CC[C@H]32)C[C@@]2(CCCc3cc(Cl)ccc32)CO4)C1 [Example 230, [(3R,6R,7S,8E,22S)-6′-Chloro-12,12-(1,3-propylene)-13,15,15-trioxo-spiro[11,20-dioxa-15-thia-1,14-diazatetracyclo[14.7.2.03,6.019,24]pentacosa-8,16(25),17,19(24)-tetraene-22,1′-tetralin]-7-yl]-N,N-1,3-(2-ethoxy)propylene carbamate]",< 1,< 500,
